In patent US20240122865A1, “Methods of Protecting RNA” (Pfizer Inc., priority 2021, published 2024):

Columns and labels:
Format in all cases: biochemical, Trichoderma atroviride
FgenL model RNA [1] = assay: TapeStation Assay, FgenL model RNA; design: Conc. FgenL#1 / Conc. FgenL#2: unit not given here; settings: for % Control N = 1 / % Control N = 2 / % Control Average: FgenL RNA, 20 mM amino acids, 50 mM CAPS pH 11, 50° C. 15 min; for % Control N = 1 / % Control N = 2: vs Time 0; for % Control Average: vs Time 0, Avg N=2; for Conc. FgenL#1 / Conc. FgenL#2: intact FgenL RNA after 15 min at 50° C.; for Conc. FgenL#1: 20 mM amino acids in 50 mM CAPS pH 11, run #1; for Conc. FgenL#2: 20 mM amino acids in 50 mM CAPS pH 11, run #2
Protocol: (§1) These assays were performed with amino acids and compared to a no-degradation baseline control to gauge degree of protection imparted by the amino acid. Multiple functional assay approaches were used where differing endpoints were measured including a droplet digital PCR (ddPCR) assay where intact RNA sequence was quantitated, a size exclusion base hydrolysis degradation assay that used a size exclusion column to determine the degree of degradation occurring to an mRNA construct, and finally, a TapeStation assay that utilizes capillary electrophoresis and optical detection to measure intact RNA. […] Affinity selection by mass spectrometry (ASMS), native electrospray ionization mass spectrometry (nESI-MS) and nuclear magnetic resonance (NMR) may be used as several complementary approaches to ascertain compound binding to RNA. The latter techniques utilize MS to measure mass of bound compound alone (ASMS), or mass of RNA and bound compound (nESI-MS). The nESI-MS and NMR studies may be conducted to provide direct analytical quantification of resulting complex via measurement of mass (nESI-MS) or chemical shifts (NMR). The ASMS experiment is conducted to determine saturation binding of the compound to RNA where resulting apparent binding constants (KD,App) may be generated. Further descriptions of the functional and binding assays are provided in the section below.
(§2) In principle, samples are loaded to the instrument where electrophoresis separates component RNA's on the basis of mass, and subsequently analyzes these optically as they travel through the capillary.
(§3) RNA samples were diluted to the appropriate concentration to fall within the linear range of detection for the RNA ScreenTape Assay. Model Chi18 or FgenL RNAs were diluted to 50 ng/μL in 50 mM CAPS buffer pH 11. Amino acid stocks were made up in 50 mM CAPS pH 11 and re-adjusted to >pH 11 after solubilization. […] The samples were aliquoted to PCR tubes for each time point (Time 0 or 15 minutes). Degradation reaction: Samples were incubated at 50° C. for 0 to 15 minutes in a thermocycler, removed at the appropriate time point and placed on ice. Time 0 samples remained on ice.

Chi18 model RNA [2] = assay: Droplet Digital Polymerase Chain Reaction (ddPCR) Assay, Chi18; settings: percent protection, pH 11.0, 30° C., 16 hours, n = 2
Protocol: (§4) The ddPCR assays measure RNA integrity by converting intact RNA to cDNA by reverse transcription, then performing digital PCR in thousands of nanoliter-sized droplets for each sample. PCR is performed within each droplet, which allows for more sensitive detection of subtle changes in RNA concentration compared to traditional PCR or qPCR. Additionally, primers/probes specific to the 5′ end of the RNA/cDNA transcript(s) are used to assess fragment integrity—e.g. degraded RNA will have fewer 5′ positive droplets. The BioRad QX200 Droplet Digital PCR System was used for the ddPCR workflow.
(§5) Basic assay procedure: RNA samples (Chi18 or FgenL fragments) were diluted to 25 fg/μL or 10 fg/μL, respectively, in 50 mM […] buffer pH 11.0. Amino acid stocks were made up in 50 mM CAPS buffer, pH 11.0 and subsequently re-adjusted to pH 11.0, post solubilization. Amino acid stocks were tested in a dose-response format to determine EC50. An amino acid dilution plate containing a ˜300 mM (or appropriate) top-concentration of amino acid in 50 mM CAPS buffer was serially (half-log) diluted for 10 times. 0.6 μL of this compound dilution plate was spotted into a 96-well PCR plate (Thermo). Sample RNAs were added (6 μL) and incubated with test amino acid as described below.
(§6) Degradation reaction: Treated RNAs were incubated for 16 hours at 30° C. for Chi18 samples or 44° C. for FgenL samples. Upon completion of the degradation reaction, cDNA was made from the intact RNA by Reverse Transcription and ddPCR run for each sample (96 well plates). Positive 5′ droplet values were divided by the total accepted droplet values for each sample and a ratio value generated for each sample.
(§7) EC50 was determined by using a four parameter logistic equation: Y=A+((B−A)/(1+(C/X)D)); where Y is percent protection, X is compound concentration, A and B are minimum and maximum asymptotes, respectively, C is EC50, and D is Hill slope.

Chi18 model RNA [3] = assay: TapeStation Assay, Chi18 model RNA; design: Conc. chi18#1 / Conc. chi18#2: unit not given here; settings: for % Control N = 1 / % Control N = 2 / % Control Avg.: Chi18 RNA, 20 mM amino acids, 50 mM CAPS pH 11, 50° C. 15 min; for % Control N = 1 / % Control N = 2: vs Time 0; for % Control Avg.: vs Time 0, Avg N=2; for Conc. chi18#1: 20 mM amino acids in 50 mM CAPS pH 11, run #1
Protocol: as §1, §2, §3

FgenL model RNA [4] = settings: percent protection, pH 11.0, 44° C., 16 hours, n = 2
Protocol: as §4, §5, §6, §7

[5] = intact Chi18 RNA after 15 min at 50° C.

Row | Compound | % Control N = 1 (FgenL model RNA [1]) [%] | % Control N = 2 (FgenL model RNA [1]) [%] | % Control Average (FgenL model RNA [1]) [%] | Conc. FgenL#1 (FgenL model RNA [1]) | Conc. FgenL#2 (FgenL model RNA [1]) | EC50 (Chi18 model RNA [2]) [mM] | % Control N = 1 (Chi18 model RNA [3]) [%] | % Control N = 2 (Chi18 model RNA [3]) [%] | % Control Avg. (Chi18 model RNA [3]) [%] | Conc. chi18#1 (Chi18 model RNA [3]; [5]) | Conc. chi18#2 (Chi18 model RNA [3]; intact Chi18 RNA after 15 min at 50° C., 20 mM amino acids in 50 mM CAPS pH 11, run #2) | EC50 (FgenL model RNA [4]) [mM]
1 | N[C@@H](CSSC[C@H](N)C(=O)O)C(=O)O [Cystine] | 75.9 | 64.6 | 70.2 | 26.2 | 22.4 | > 29 | 53.1 | 42.7 | 47.9 | 28.3 | 22.6 | > 30
2 | O[C@H](CS)[C@H](O)CS (racemic) [DTT, dithiothreitol] | 8.3 | 9.0 | 8.7 | 2.86 | 3.13 |  | 10.7 | 10.7 | 10.7 | 5.68 |  | 
3 | O=C(O)CCP(CCC(=O)O)CCC(=O)O [TCEP, tris(2-carboxyethyl)phosphine] | 5.0 | 4.0 | 4.5 | 1.71 | 1.38 | > 30 | 2.6 | 2.6 | 2.6 | 1.41 |  | > 30
